Earlier results as cited in patent US20070203190A1, “Hydroxylamines and derivatives for the inhibition of complement activation” (priority 2006, published 2007).

B1: CD59: blocks assembly of the MAC; proposed as a potential therapeutic agent (protein, UniProt P13987 26-102, looked up)
CD59 glycoprotein: LQCYNCPNPTADCKTAVNCSSDFDACLITKAGLQVYNKCWKFEHCNFNDVTTRLRENELTYYCCKKDLCNFNEQLEN

What was measured:
complement activation = conditions: in vivo animal models

Row | Molecule | suppression of complement activation (complement activation) | activity in vitro (MAC)
1 | sCR1: a recombinant form of complement receptor 1 known as soluble complement receptor 1 | suppress complement activation | 
2 | B1 |  | limited activity
